Results on two compounds are retold here after US11370897B2, “Curable composition comprising UV stabilizer” (Momentive Performance Materials Inc., priority 2019, dated 2022).

The data set is described as follows: Solubility tests of resorcinol products in alcoholic solvents. The following applies: organic solvent or mixture, thermodynamic from solid, 20° C., Table 11, by product ratio DBMR/BTMR/DTMR. In kind it is physicochemical. The method, then:
To determine the solubility of resorcinol products, the following procedure was used:
0.50 g of pre-dried product (45 min @75° C. in oven) was combined with 5.00 ml of solvent (4.03 g of 2-butanol or 4.60 g of 1-methoxy-2-propanol). The mixture was handled in an ultrasonic bath for 1 min and stored afterwards under constant climate (20° C.) for 24 h.
The overlying solution was transfused carefully with a pipette. The solid content of this solution was measured thermogravimetrically with a halogen moisture analyzer (Mettler Toledo). This test procedure was repeated three times.

[1] abbreviates: 1-methoxy-2-propanol, read-out: Solubility in 1-Methoxy-2-propanol.
The mark [2] stands for this setting: 2-butanol, read-out: Solubility in 2-butanol.

Where two headings read alike, the source gives them in different places. A value given as a limit tells only on which side of the number the result lay.

Consider `Cc1c(O)c(C(=O)c2ccccc2)cc(C(=O)c2ccccc2)c1O` [DBMR, dibenzoylacyl-2-methyl resorcinol], for which the solubility at 24 h was 4000 µg/mL under setting [1] and under 1000 µg/mL under setting [2].

For the compound `Cc1cccc(C(=O)c2cc(C(=O)c3cccc(C)c3)c(O)c(C)c2O)c1` [DTMR, ditoluoylacyl-2-methyl resorcinol], the solubility at 24 h reads like this: under setting [1], 15000 µg/mL; under setting [2], 1000 µg/mL.

What is called solubility is how much of the substance goes into solution per volume.
